Laboratory results reported in patent US20110159304A1, “ANTI-SULPHATE REDUCING BACTERIA COMPOSITION COMPRISING 1,2-BENZISOTHIAZOL-3(2H)-ONE, IRGASAN, BENZYL-2-BROMOACETATE, 2,2-DIBROMO-2-CYANOACETAMIDE, AND 2-BROMO-2-NITROPROPAN-1,3-DIOL” (KOREA GAS CORPORATION, priority 2009, published 2011).
Like-named read-outs stand apart in the source and are kept apart here.

Assays:
Assay type in all cases: cell-based
[1] = system: Desulfovibrio desulfuricans KCTC 5786; assay: Antibacterial activity test of antibacterial agent-added coating material (adhesive, primer)
Procedure: (§1) The experiment proceeded with varying the concentration of the compounds used in the experiment to 1.0%, 0.1%, 0.01%, and 0.001%. The 8 mm of a paper disk was placed on the plate prepared by plating the culture, and were inoculated with 50 μl of various concentrations of the compound. After culturing the strain for 24, and 48 hrs at 37° C., the clear zone (mm) representing antibacterial activity was measured and Minimum Inhibitory Concentration (MIC) was determined.
Test equipment and materials, and test condition are as follows: • Coating material type: adhesive (Canusa), primer (Polyken) • Mixed antibacterial agent's concentration: control, 0.5, 1.0, 2.0, 5.0 wt %
As an adhesive specimen, the components were mixed by manual stirring in an oven at 150° C., and then an 1 mm-thick adhesive sheet was fabricated. As a primer specimen, a 0.2 mm-thick sheet having a primer dry film was fabricated. The specimen was diced into a size of 15 mm×15 mm, and after UV sterilization, the antibacterial activity of the specimen was assessed using the same environment and method as in the test method of Experiment Example 1 described above.

[2] = system: Desulfovibrio desulfuricans KCTC 5786; assay: Antibacterial activity evaluation, paper disk clear zone and MIC; conditions: for zone of inhibition at 0.001 % / zone of inhibition at 0.01 % / zone of inhibition at 0.1 % / zone of inhibition at 1 %: Desulfovibrio desulfuricans; for zone of inhibition at 0.001 %: antibacterial agent concentration 0.001%; for antibacterial activity relative to other commercially used antibacterial agents: compared by MIC with 1-hydroxypyridine-2-tionzinc, 2-methyl-isothiazolin-3-one and the like; for MIC minimum inhibitory concentration: paper disk test, concentrations 1.0-0.001%, 37° C.
Procedure: Desulfovibrio desulfuricans KCTC 5786 was used as a test sulphate reducing bacteria strain.
The all materials used in the test, disk paper, medium and so on, were sterilized for 15 min at 121° C. Bacteria's culture and antibacterial activity test were performed in an anaerobic chamber (Anaerobic System, Form a Sci; condition maintaining not more than 5 ppm of oxygen concentration).
After culturing the test strain for not less than 3 days, the volume of the culture was adjusted to 10^5-7/mL to prepare for plating it on Desulfovibrio medium, and the test compounds were resolved in a suitable solvent for use (ethanol for lipid soluble compounds, and distilled water for water soluble compounds).
as §1

[3] = system: Desulfovibrio desulfuricans KCTC 5786; assay: Antibacterial activity test after thermal shock (paper disk clear zone); conditions: for clear zone after thermal shock / clear zone before thermal shock: 0.1% condition; for clear zone after thermal shock: after thermal shock (180° C., 1 hr); for antibacterial activity after thermal shock: after 180° C., 1 hour, 0.1%
Procedure: as §1
Applying the heat shrinkable sheet using flames of torch, the temperature increased to about 150° C. and the exposure time was around 15 minutes. […] After 1,2-benzisothiazol-3(2H)-one, irgasan, benzyl-2-bromoacetate, 2,2-dibromo-2-cyanoacetamide, and 2-bromo-2-nitropropan-1,3-diol were exposed to higher temperature (180° C.) for a longer time (1 hour), the antibacterial activity was measured at a concentration of 0.1% using the same method as Experiment Example 1 (see, Table 3, FIGS. 3a to 3e).

[4] = adhesive (Canusa) with 0.5 wt % antibacterial agent
[5] = adhesive (Canusa) with 1.0 wt % antibacterial agent
[6] = adhesive (Canusa) with 2.0 wt % antibacterial agent
[7] = adhesive (Canusa) with 5.0 wt % antibacterial agent
[8] = primer (Polyken) with 1.0 wt % antibacterial agent
[9] = primer (Polyken) with 2.0 wt % antibacterial agent
[10] = primer (Polyken) with 5.0 wt % antibacterial agent
[11] = KCTC5786, 8 mm paper disk, 50 μl, — = negative, read-out: CZ (mm) clear zone
[12] = KCTC5786, antibacterial agent concentration 0.01%, 8 mm paper disk, 50 μl, — = negative, read-out: CZ (mm) clear zone
[13] = KCTC5786, antibacterial agent concentration 0.1%, 8 mm paper disk, 50 μl, — = negative, read-out: CZ (mm) clear zone
[14] = KCTC5786, antibacterial agent concentration 1%, 8 mm paper disk, 50 μl, — = negative, read-out: CZ (mm) clear zone
[15] = antibacterial agent concentration 0.1%, 8 mm paper disk, 50 μl, — = negative
[16] = antibacterial agent concentration 1%, 8 mm paper disk, 50 μl, — = negative
[17] = primer (Polyken) with 0.5 wt % antibacterial agent
[18] = KCTC5786, read-out: CZ (mm) clear zone

| Compound | Clear zone (mm), primer [1, 9] | Clear zone (mm), primer [1, 10] | zone of inhibition at 0.1 % [2, 13] | zone of inhibition at 1 % [2, 14] | antibacterial activity relative to other commercially used antibacterial agents [2] | clear zone after thermal shock [3] | clear zone before thermal shock [3] | antibacterial activity after thermal shock [3] | MIC minimum inhibitory concentration [2] | also measured |
| --- | --- | --- | --- | --- | --- | --- | --- | --- | --- | --- |
| O=c1[nH]sc2ccccc12 [1,2-benzisothiazol-3(2H)-one] | 8.5 mm | 17.5 mm | 6.5 mm | 13.5 mm | 10 times | 14.5 mm | 16 mm | maintained the excellent antibacterial activity | – | Clear zone (mm), adhesive [1, 4]: 15 mm; Clear zone (mm), adhesive [1, 5]: 18 mm; Clear zone (mm), adhesive [1, 6]: 19 mm; Clear zone (mm), adhesive [1, 7]: 25 mm; Clear zone (mm), primer [1, 8]: 7.5 mm; zone of inhibition at 0.001 % [2, 11]: 1 mm; zone of inhibition at 0.01 % [2, 12]: 2.5 mm |
| [O-]n1ccccc1=S.[O-]n1ccccc1=S.[Zn+2] [1-hydroxypyridine-2-thionezinc, reference compound] | – | – | – | – | – | – | – | – | 0.1% | CZ (mm) clear zone [2, 15]: 1 mm; CZ (mm) clear zone [2, 16]: 3.5 mm |
| O=[N+]([O-])C(Br)(CO)CO [2-bromo-2-nitropropan-1,3-diol] | 2 mm | 16.5 mm | 8 mm | 18.5 mm | 10 times | 25 mm | 20 mm | maintained the excellent antibacterial activity | – | Clear zone (mm), adhesive [1, 4]: 5.5 mm; Clear zone (mm), adhesive [1, 5]: 10.5 mm; Clear zone (mm), adhesive [1, 6]: 13 mm; Clear zone (mm), adhesive [1, 7]: 14.5 mm; Clear zone (mm), primer [1, 17]: 9 mm; Clear zone (mm), primer [1, 8]: 9 mm; zone of inhibition at 0.01 % [2, 12]: 1.5 mm |
| Oc1cc(Cl)ccc1Oc1ccc(Cl)cc1Cl [Irgasan, irgasan] | 1.5 mm | 6 mm | – | – | 10 times | 13 mm | 13 mm | maintained the excellent antibacterial activity | – | Clear zone (mm), primer [1, 17]: 3.5 mm; Clear zone (mm), primer [1, 8]: 1.5 mm; zone of inhibition at 0.01 % [2, 18]: 5 mm; zone of inhibition at 0.1 % [2, 18]: 11 mm; zone of inhibition at 1 % [2, 18]: 14 mm |
| O=CCCCC=O [Glutar-di-aldehyde, 50 wt %, Glutar-di-aldehyde, reference compound] | – | – | – | – | – | – | – | – | 0.1% | CZ (mm) clear zone [2, 15]: 6 mm; CZ (mm) clear zone [2, 16]: 12 mm |
| c1ccc2[nH]c(-c3cscn3)nc2c1 [Thiabendazole minimum 99%, Thiabendazole, reference compound] | – | – | – | – | – | – | – | – | ≥ 1% | – |
| Cc1cc(O)cc(C)c1Cl [4-chloro-3,5-dimethylphenol, reference compound] | – | – | 1 mm | 16 mm | – | – | – | – | 0.1% | – |
| N#Cc1c(Cl)c(Cl)c(Cl)c(C#N)c1Cl [Chlorothalonil, reference compound] | – | – | 2 mm | 4 mm | – | – | – | – | 0.1% | – |
| O=C(Nc1ccc(Cl)cc1)Nc1ccc(Cl)c(Cl)c1 [3,4,4-trichloro-Carbanilide, reference compound] | – | – | – | – | – | – | – | – | ≥ 1% | – |
| Cn1sccc1=O [2-methyl-4-isothiazoline-3-one, reference compound] | – | – | – | – | – | – | – | – | 0.1% | zone of inhibition at 0.1 % [2, 18]: 5 mm; zone of inhibition at 1 % [2, 18]: 12 mm |
| O=C(CBr)OCc1ccccc1 [Benzyl-2-bromoacetate, benzyl-2-bromoacetate] | ≧34 mm | ≧39 mm | ≥ 39 mm | ≥ 39 mm | 10 times | 36 mm | 39 mm | maintained the excellent antibacterial activity | – | Clear zone (mm), adhesive [1, 4]: 24 mm; Clear zone (mm), adhesive [1, 5]: 30 mm; Clear zone (mm), adhesive [1, 6]: 34 mm; Clear zone (mm), adhesive [1, 7]: ≧39 mm; Clear zone (mm), primer [1, 17]: ≧26 mm; Clear zone (mm), primer [1, 8]: ≧32 mm; zone of inhibition at 0.001 % [2, 11]: 35 mm; zone of inhibition at 0.01 % [2, 12]: ≥ 39 mm |
| CCCCNC(=O)OCC#CI [3-iodo-2-propynyl n-butylcarbamate, 97%, 3-iodo-2-propynyl n-butylcarbamate, reference compound] | – | – | 3 mm | 5.5 mm | – | – | – | – | 0.1% | – |
| N#CC(Br)(Br)C(N)=O [2,2-dibromo-2-cyanoacetamide] | 1 mm | 6.5 mm | ≥ 39 mm | ≥ 39 mm | 10 times | 18.5 mm | 39.5 mm | maintained the excellent antibacterial activity | – | Clear zone (mm), adhesive [1, 4]: 2 mm; Clear zone (mm), adhesive [1, 5]: 2.5 mm; Clear zone (mm), adhesive [1, 6]: ≧26 mm; Clear zone (mm), adhesive [1, 7]: ≧30.5 mm; Clear zone (mm), primer [1, 17]: 1.5 mm; zone of inhibition at 0.001 % [2, 11]: ≥ 39 mm; zone of inhibition at 0.01 % [2, 12]: ≥ 39 mm |
| Molybdenum (VI) oxide [Molybdenum (VI) oxide 99.99%, reference compound] | – | – | – | – | – | – | – | – | 1.0% | CZ (mm) clear zone [2, 16]: 6 mm |
